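A five-concentration, 48-hour dose response in 96-well plates underlies each endpoint, interpolated linearly between surrounding concentrations. GI50: concentration for 50% inhibition of growth.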 Activity calls are given as the source filed them. Rule as the data show it: active = GI50 up to about 1.1 µM and inactive = higher.
Key:
Assay in all cases: DTP human tumour cell line panel, 48 h
[1] = system: U-251
[2] = system: COLO 205
[3] = system: TK-10
[4] = system: OVCAR-4
[5] = system: HOP-92
[6] = system: ACHN
[7] = system: UO-31
[8] = system: BT-549
[9] = system: NCI-H23
[10] = system: MDA-MB-231
[11] = system: RPMI-8226
[12] = system: T47D
[13] = system: Hs-578T
[14] = system: OVCAR-3
[15] = system: K562
[16] = system: LOX IMVI
[17] = system: OVCAR-5
[18] = system: Malme-3M
[19] = system: MDA-MB-435
[20] = system: SNB-19

Measured: GI50

C/C(=N\Oc1cc(Cl)ncn1)c1ccccn1
inactive: [1] 60.5 µM | [2] > 100 µM | [3] 59 µM | [4] > 100 µM | [5] 20.5 µM | [6] 90.6 µM | [7] 52 µM | [8] 85.3 µM | [9] 34.1 µM | [10] 19.8 µM | [11] > 100 µM | [12] 30.2 µM | [13] 32.8 µM | [14] 20.2 µM | [15] 56.5 µM | [16] 42.3 µM | [17] 37.8 µM | [18] 61.9 µM | [19] 47.4 µM | [20] > 100 µM

Reference: ChEMBL document CHEMBL1201862, “PubChem BioAssay data set” (2004)
